We go through three compounds from patent US9724362B2, “Pharmaceutical compositions comprising nanoparticles and a resuspending material” (Bend Research, Inc., priority 2007, dated 2017).

≈ marks a conversion by molar mass, not a printed value. Read-outs that look alike come from different tables or passages of the source.

A short description of one data set: Drug solubility. Type of data set: physicochemical.

As for Ethylcellulose, the “amount of polymer soluble at pH 6.5” value was “less than 0.001 mg/mL”.
`CCOC(=O)N1c2ccc(C(F)(F)F)cc2[C@@H](N(Cc2cc(C(F)(F)F)cc(C(F)(F)F)c2)C(=O)OC)C[C@H]1CC` [Drug 2, [2R,4S]4-[(3,5-bis-trifluoromethyl-benzyl)-methoxycarbonyl-amino]-2-ethyl-6-trifluoromethyl-3,4-dihydro-2H-quinoline-1-carboxylic acid ethyl ester]: the solubility in “Drug solubility” (water, read-out: solubility in water) was under 0.1 µg/mL.
For `Cc1ccc(-c2cc(C(F)(F)F)nn2-c2ccc(S(N)(=O)=O)cc2)cc1` [Drug 1, 4-[5-(4-methylphenyl)-3-(trifluoromethyl)-1H-pyrazol-1-yl]benzenesulfonamide], in the data set “Drug solubility” (MFD solution, read-out: solubility in MFD solution), the solubility is about 40 µg/mL (≈ 105 µM).
